According to the supplement of paper PMC11061612:

Tests used:
Assay in all cases: combination Emax (second highest fraction inhibited in the dose matrix, 72 h); higher = more inhibition; extreme values may be limits of the assay
[1] = tested on: SU-DHL-5 (B-Cell Non-Hodgkin's Lymphoma)
Outline: (§1)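 Bliss excess equals the observed combination effect minus the expected value EA + EB − EA·EB, where EA and EB are the effects of each agent alone. Combination Emax is the second-highest inhibition within the matrix. Inhibition was scaled from CellTiter-Glo 2.0 luminescence, with 0 set by vehicle wells and 1 by blank wells, after 72 hours of two-drug dosing of cells plated in 1536-well plates.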

[2] = tested on: DAN-G (Pancreatic Carcinoma)
Outline: as §1

[3] = tested on: G-361 (Melanoma)
Outline: as §1

[4] = tested on: NCI-H661 (Non-Small Cell Lung Carcinoma)
Outline: as §1

[5] = tested on: NCI-H929 (Plasma Cell Myeloma)
Outline: as §1

[6] = tested on: NCI-H526 (Small Cell Lung Carcinoma)
Outline: as §1

[7] = tested on: PC-3 (Prostate Carcinoma)
Outline: as §1

[8] = tested on: MOLM-13 (Acute Myeloid Leukemia)
Outline: as §1

[9] = tested on: DMS-114 (Small Cell Lung Carcinoma)
Outline: as §1

[10] = tested on: NCI-H3122 (Lung Adenocarcinoma)
Outline: as §1

[11] = tested on: KMS-12-BM (Plasma Cell Myeloma)
Outline: as §1

[12] = tested on: COR-L279 (Small Cell Lung Carcinoma)
Outline: as §1

[13] = tested on: MOG-G-CCM (Low Grade Glioma)
Outline: as §1

[14] = tested on: M059J (Glioblastoma)
Outline: as §1

[15] = tested on: MN-60 (B-Lymphoblastic Leukemia)
Outline: as §1

[16] = tested on: CW-2 (Colorectal Carcinoma)
Outline: as §1

[17] = tested on: NCCIT (Other Solid Carcinomas)
Outline: as §1

[18] = tested on: NCI-H2731 (Mesothelioma)
Outline: as §1

[19] = tested on: ST486 (Burkitt's Lymphoma)
Outline: as §1

[20] = tested on: SK-GT-2 (Gastric Carcinoma)
Outline: as §1

## Cc1c2c(nn1C)CSCc1cc(n(C)n1)CSc1cc(c3ccccc3c1)OCCCc1c(C(=O)O)n(C)c3c-2c(Cl)ccc13 [AZD5991] + C=CCn1c(=O)c2cnc(Nc3ccc(N4CCN(C)CC4)cc3)nc2n1-c1cccc(C(C)(C)O)n1 [AZD1775] (first compound max 1 µM, partner max 1 µM)
[1]
  combination Emax: 1
[2]
  combination Emax: 0.883
[3]
  combination Emax: 0.967
[4]
  combination Emax: 0.949
[5]
  combination Emax: 1
[6]
  combination Emax: 0.818
[7]
  combination Emax: 0.245
[8]
  combination Emax: 1
[9]
  combination Emax: 0.657
[10]
  combination Emax: 0.815
[11]
  combination Emax: 1
[12]
  combination Emax: 0.466
[13]
  combination Emax: 0.457
[14]
  combination Emax: 0.634
[15]
  combination Emax: 0.188
[16]
  combination Emax: 0.402
[17]
  combination Emax: 0.86
[18]
  combination Emax: 0.298
[19]
  combination Emax: 1
[20]
  combination Emax: 0.809

## Cc1c2c(nn1C)CSCc1cc(n(C)n1)CSc1cc(c3ccccc3c1)OCCCc1c(C(=O)O)n(C)c3c-2c(Cl)ccc13 [AZD5991] + CC1(C)CCC(CN2CCN(c3ccc(C(=O)NS(=O)(=O)c4ccc(NCC5CCOCC5)c([N+](=O)[O-])c4)c(Oc4cnc5[nH]ccc5c4)c3)CC2)=C(c2ccc(Cl)cc2)C1 [Venetoclax] (first compound max 1 µM, 7x7, partner max 1 µM)
[1]
  combination Emax: 1
[2]
  combination Emax: 0.247
[3]
  combination Emax: 0.968
[4]
  combination Emax: 0.561
[5]
  combination Emax: 1
[6]
  combination Emax: 1
[7]
  combination Emax: 0.171
[8]
  combination Emax: 1
[9]
  combination Emax: 0.911
[10]
  combination Emax: 0.275
[11]
  combination Emax: 1
[12]
  combination Emax: 0.244
[13]
  combination Emax: 0.433
[14]
  combination Emax: 0.347
[15]
  combination Emax: 0.323
[16]
  combination Emax: 0.151
[17]
  combination Emax: 0.692
[18]
  combination Emax: 0.0671
[19]
  combination Emax: 0.974
[20]
  combination Emax: 0.198

## Cc1c2c(nn1C)CSCc1cc(n(C)n1)CSc1cc(c3ccccc3c1)OCCCc1c(C(=O)O)n(C)c3c-2c(Cl)ccc13 [AZD5991] + CCN(CCO)CCCOc1ccc2c(Nc3cc(CC(=O)Nc4cccc(F)c4)[nH]n3)ncnc2c1 [AZD2811] (first compound max 1 µM, 7x7, partner max 1 µM)
[1]
  combination Emax: 1
[2]
  combination Emax: 0.702
[3]
  combination Emax: 0.964
[4]
  combination Emax: 0.686
[5]
  combination Emax: 1
[6]
  combination Emax: 0.8
[7]
  combination Emax: 0.305
[8]
  combination Emax: 1
[9]
  combination Emax: 0.587
[10]
  combination Emax: 0.918
[11]
  combination Emax: 1
[12]
  combination Emax: 0.787
[13]
  combination Emax: 0.41
[14]
  combination Emax: 0.523
[15]
  combination Emax: 0.206
[16]
  combination Emax: 0.158
[17]
  combination Emax: 0.674
[18]
  combination Emax: 0.273
[19]
  combination Emax: 0.976
[20]
  combination Emax: 0.204

## Cc1c2c(nn1C)CSCc1cc(n(C)n1)CSc1cc(c3ccccc3c1)OCCCc1c(C(=O)O)n(C)c3c-2c(Cl)ccc13 [AZD5991] + CN(C)CCCOc1ccc(-c2ccc3ncc4c(c3c2)n(C2CCOCC2)c(=O)n4C)cn1 [AZD0156] (first compound max 1 µM, 7x7, partner max 1 µM)
[1]
  combination Emax: 1
[2]
  combination Emax: 0.48
[3]
  combination Emax: 0.956
[4]
  combination Emax: 0.505
[5]
  combination Emax: 1
[6]
  combination Emax: 0.378
[7]
  combination Emax: 0.282
[8]
  combination Emax: 1
[9]
  combination Emax: 0.548
[10]
  combination Emax: 0.405
[11]
  combination Emax: 1
[12]
  combination Emax: 0.496
[13]
  combination Emax: 0.249
[14]
  combination Emax: 0.338
[15]
  combination Emax: 0.177
[16]
  combination Emax: 0.154
[17]
  combination Emax: 0.641
[18]
  combination Emax: 0.193
[19]
  combination Emax: 0.805
[20]
  combination Emax: 0.182

## Cc1c2c(nn1C)CSCc1cc(n(C)n1)CSc1cc(c3ccccc3c1)OCCCc1c(C(=O)O)n(C)c3c-2c(Cl)ccc13 [AZD5991] + C[C@@H]1COCCN1C2=NC(=NC(=C2)C3(CC3)[S@](=N)(=O)C)C4=C5C=CNC5=NC=C4 [AZD6738] (first compound max 1 µM, 7x7, partner max 10 µM)
[1]
  combination Emax: 1
[2]
  combination Emax: 0.737
[3]
  combination Emax: 1
[4]
  combination Emax: 0.829
[5]
  combination Emax: 1
[6]
  combination Emax: 0.833
[7]
  combination Emax: 0.482
[8]
  combination Emax: 1
[9]
  combination Emax: 0.815
[10]
  combination Emax: 0.841
[11]
  combination Emax: 1
[12]
  combination Emax: 0.822
[13]
  combination Emax: 0.518
[14]
  combination Emax: 0.774
[15]
  combination Emax: 0.399
[16]
  combination Emax: 0.443
[17]
  combination Emax: 0.864
[18]
  combination Emax: 0.294
[19]
  combination Emax: 1
[20]
  combination Emax: 0.334

## Cc1c2c(nn1C)CSCc1cc(n(C)n1)CSc1cc(c3ccccc3c1)OCCCc1c(C(=O)O)n(C)c3c-2c(Cl)ccc13 [AZD5991] + C[C@@H](Nc1cc(F)cc(F)c1)c1cc(C(=O)N(C)C)cc2c(=O)cc(N3CCOCC3)oc12 [AZD8186] (first compound max 1 µM, 7x7, partner max 3 µM)
[1]
  combination Emax: 1
[2]
  combination Emax: 0.36
[3]
  combination Emax: 0.942
[4]
  combination Emax: 0.6
[5]
  combination Emax: 1
[6]
  combination Emax: 0.482
[7]
  combination Emax: 0.449
[8]
  combination Emax: 1
[9]
  combination Emax: 0.61
[10]
  combination Emax: 0.352
[11]
  combination Emax: 1
[12]
  combination Emax: 0.624
[13]
  combination Emax: 0.447
[14]
  combination Emax: 0.421
[15]
  combination Emax: 0.343
[16]
  combination Emax: 0.139
[17]
  combination Emax: 0.678
[18]
  combination Emax: 0.151
[19]
  combination Emax: 0.829
[20]
  combination Emax: 0.179
